How the values were obtained:
Type in all cases: in vivo
[1] = system: 3rd-instar larvae of Pyrausta nubilalis Hubern; experiment: Joint toxicity of I-72 + metaflumizone, artificial diet-pesticide film, Example 2, Table 2; details: Ostrinia nubilalis, 72 h, A = compound I-72, B = metaflumizone, read-out: LC50
Procedure: Test subject: 3rd-instar larvae of Pyrausta nubilalis Hubern, a sensitive strain reared indoors.
Experimental method: the artificial diet-pesticide film method was adopted. A standard clean 24-well culture plate was selected. 1 ml of artificial diet was added to each well. After the diet cooled and solidified, a quantitative amount of a pesticide solution was added to the culture plate using a continuous sampler, and then it was air-dried naturally in the shade. The standard test insects were introduced, with 1 insect in each well, a total of 48 insects. The treated test insects were placed in an observation room under certain conditions. The reaction of the test insects was regularly observed, and the number of dead and live insects was investigated 72 h later.
The test conditions, the preparation method of the pesticide solution, and the evaluation method (Sun Y-P) for the joint action type of the mixture were the same as those in Example 1.

[2] = system: 3rd-instar larvae of Plutella xylostella; experiment: Joint toxicity of I-72 + metaflumizone, airbrush spraying, Example 4, Table 4; details: Plutella xylostella, foliar, airbrush spraying of cabbage leaf disks, 72 h, A = compound I-72, B = metaflumizone, read-out: LC50
Procedure: Test target: 3rd-instar larvae of Plutella xylostella, a sensitive strain reared indoors.
Test conditions: temperature: 25-27° C., humidity: RH 60%, and illumination: L:D=14:10
Experimental method: the airbrush spraying method was adopted. The cabbage cultivated in the greenhouse was taken and made into leaf disks with a diameter of 3 cm. After uniform spraying treatment with an airbrush manual sprayer, the leaf disks were placed in a 9-cm Petri dish lined with filter paper. After natural air-drying in the shade, the standard test insects were introduced, and the number of dead and live insects was investigated 72 h later.
The preparation of the pesticide solution and the evaluation method (Sun Y-P) for the joint action type of the mixture were the same as those in Example 1.

[3] = system: 2nd-instar larvae of Plutella xylostella; experiment: Joint toxicity of I-72 + spiropidion, Example 31, Table 31; details: Plutella xylostella, foliar; A = compound I-72, B = spiropidion; cabbage leaf dipping; 72 hours; read-out: LC50
Procedure: Test target: 2nd-instar larvae of Plutella xylostella.
(§1) Preparation of the pesticide solution: according to different test requirements, the test samples were accurately weighed respectively with an electronic analytical balance. The technical pesticides were dissolved in acetone, and then diluted with 0.1% Tween 80 water into a series of pesticide solutions with a certain concentration gradient according to the experimental design dosage.
(§2) Experimental method: first, cabbage leaves were selected and dipped in the prepared pesticide solution for 10 s in the order from low dosage to high dosage according to the experimental design. After natural air-drying in the shade, they were placed in a 9-cm-diameter Petri dish with filter paper, and uniform and healthy test insects were introduced, with 10 insects for each treatment and 3 replicates for each treatment. In addition, a blank control was set up.
(§3) The treated test materials were placed in an observation room, and the temperature, humidity and illumination of the observation room could be adjusted as needed. The number of dead and live insects was investigated 72 hours later. […] Then, the co-toxicity coefficient of each ratio was calculated using the Sun Y-P method to evaluate the mixing effect (the same as in Example 1).

[4] = system: adult Tetranychus cinnabarinus (Boisduval); experiment: Joint toxicity of I-72 + spirodiclofen, potted-seedling spraying, Example 25, Table 25; details: Tetranychus cinnabarinus, A = compound I-72, B = spirodiclofen, 72 hours, read-out: LC50
Procedure: Test target: adult Tetranychus cinnabarinus (Boisduval), a sensitive strain reared indoors.
as §1
Experimental method: the activity of the mixture against the adult Tetranychus cinnabarinus (Boisduval) was determined by adopting the potted-seedling spraying method. First, the adult Tetranychus cinnabarinus of uniform size were transferred onto the leaves of kidney bean seedlings at the stage when the first pair of true leaves was fully expanded. After the adult mites had stabilized, the base number was counted. Then, the uniform spraying was performed with the pesticide solution in the order from low to high dose according to the experimental design, with 1.5 mL for each seedling and 3 replicates for each treatment. […]
as §3, with “needed.” for “needed. The number of dead and live insects was investigated 72 hours later.”, “effect,” for “effect (the same”, “1.” for “1).”

[5] = system: 2nd-instar larvae of Mythimna separata; experiment: Joint toxicity of I-72 + hexaflumuron, Example 56, Table 56; details: foliar, A = compound I-72, B = hexaflumuron, corn leaf dipping, 72 hours, read-out: LC50
Procedure: Test target: 2nd-instar larvae of Mythimna separata.
as §1
as §2, with “corn” for “cabbage”
as §3

[6] = system: Bemisia tabaci (Gennadius) nymphs; experiment: Joint toxicity of I-72 + thiacloprid, Example 71, Table 71; details: A = compound I-72, B = thiacloprid, cotton leaf-disk spraying, 96 hours, read-out: LC50
Procedure: Test target: Bemisia tabaci (Gennadius) nymphs, a sensitive strain reared indoors.
as §1
Experimental method: first, cotton leaves with neat and consistent Bemisia tabaci (Gennadius) nymphs were selected and made into leaf disks, with about 20 insects on each leaf disk. Then, they were evenly sprayed with the pesticide solution in the order from low dosage to high dosage according to the experimental design, with 1.5 mL for each leaf and 3 replicates for each treatment. In addition, a blank control was set up.
as §3, with “96” for “72”

## CN(C(=O)c1ccc2c(c1)OC(F)(F)O2)c1cccc(C(=O)Nc2c(Br)cc(C(F)(C(F)(F)F)C(F)(F)F)cc2OC(F)F)c1F [Compound I-72]
[1]
  LC50: 0.67 µg/mL
[2]
  LC50: 0.0867 µg/mL
[3]
  LC50: 0.0876 µg/mL
[4]
  LC50: 35.1 µg/mL
[5]
  LC50: 0.0301 µg/mL
[6]
  LC50: 10.9 µg/mL
